Results taken from the supplement of paper PMC10307832.

What was measured:
Assay in all cases: relative viability (nuclei count vs DMSO), 5 days (fraction); higher = more cells survive
MK-8033 = compound: Cn1cc(-c2cnc3ccc4ccc(CS(=O)(=O)NCc5ccccn5)cc4c(=O)c3c2)cn1 [MK-8033]
In short: (§1)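 Lung cancer cell lines in 1536-well plates were kept overnight at 37 °C, then pinned with five library-drug doses (not always all listed) spaced by √10 on vehicle-anchored plates. After 5 days without medium change, cells were fixed, permeabilised and Hoechst-stained in one step, imaged at 4×, and nuclei were counted with MetaXpress. Viability is treated-well nuclei divided by vehicle-well nuclei, taken as the median over plates. Plates passed only with control CV below 25% and at least one doubling.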

RU-SKI 43 = compound: CC[C@@H](C)CNCC(=O)N1CCC2=C([C@@H]1COC3=CC=CC(=C3)C)C=CS2 [RU-SKI 43]
In short: as §1

Irinotecan = compound: CCc1c2c(nc3ccc(OC(=O)N4CCC(N5CCCCC5)CC4)cc13)-c1cc3c(c(=O)n1C2)COC(=O)[C@]3(O)CC [Irinotecan]
In short: as §1

Irinotecan + Vorinostat = compound: CCc1c2c(nc3ccc(OC(=O)N4CCC(N5CCCCC5)CC4)cc13)-c1cc3c(c(=O)n1C2)COC(=O)[C@]3(O)CC [Irinotecan] + O=C(CCCCCCC(=O)Nc1ccccc1)NO [Vorinostat] (partner 1 µM)
In short: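 Dosing by pin tool came one day after lung cancer cell lines were seeded in 1536-well plates, using either one drug or a fixed anchor-drug dose plus five library-drug doses (not always all listed) in √10 steps. After 5 days, nuclei were counted on 4× images. Relative viability is treated-well nuclei count divided by vehicle-well nuclei count, and values are medians of duplicate plates.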

UMC-11
relative viability (MK-8033; 0.02 µM): 0.962
relative viability (MK-8033; 0.06325 µM): 0.837
relative viability (MK-8033; 0.2 µM): 0.916
relative viability (MK-8033; 0.6325 µM): 1
relative viability (MK-8033; 2 µM): 0.982
relative viability (RU-SKI 43; 0.1 µM): 1.07
relative viability (RU-SKI 43; 0.3162 µM): 1.11
relative viability (RU-SKI 43; 1 µM): 1.08
relative viability (RU-SKI 43; 3.162 µM): 1.07
relative viability (RU-SKI 43; 10 µM): 0.843
relative viability (Irinotecan; 0.6325 µM): 0.677
relative viability (Irinotecan; 2 µM): 0.675
relative viability (Irinotecan; 6.325 µM): 0.401
relative viability (Irinotecan; 20 µM): 0.264
relative viability (Irinotecan + Vorinostat; first compound 0.6325 µM): 0.262
relative viability (Irinotecan + Vorinostat; first compound 2 µM): 0.343
relative viability (Irinotecan + Vorinostat; first compound 6.325 µM): 0.235
relative viability (Irinotecan + Vorinostat; first compound 20 µM): 0.206
